Data as given in US11254907B2, “Fungal volatile organic compound enhances plant s growth characteristics” (The United States of America as represented by the …, priority 2018, dated 2022).

How the values were obtained:
[1] = system: peach rootstock 'Bailey-OP' (Prunus persica); assay: Root primordia induction from peach in vitro shoots on mLP with IBA; assay type: in vivo
Procedure: A two-step process was tested to induce roots from in vitro shoots and establish plants in the greenhouse. In vitro shoots of the peach rootstock ‘Bailey-OP’ (Prunus persica) of longer than 2 cm in height were first transferred to a modified Lepoivre LP medium (mLP) containing basal salts of LP medium (Quorin and Lepoivre, Acta Hort. 78:437-442, 1977) and a vitamin mixture composed of 1.0 mg/L thiamine-HCl, 1.0 mg/L nicotinic acid, 1.0 mg/L pyridoxine-HCl, 4.0 mg/L glycine, 0.2 mg/L biotin and 2.0 mg/L Ca-pathothenate (mLP) supplemented with various concentrations of indole-3-butyric acid (IBA) and cultured for two weeks to induce root primordia. The IBA concentrations ranged from 0.5 to 2.0 mg/L. Shoots with root primordia at the base were then taken out and separated into two groups. The first group was cultured on mLP medium without any growth regulators for continuous plant development as a control, whereas the second group was maintained on a similar growth regulator-free mLP medium but with a culture tube closure containing MVOC-emitting fungus of C. sp isolate TC09 (Accession No. NRRL 67603).

[2] = NPA as low as 5 μM; cited from earlier work
tobacco seedlings = assay: Polar auxin transport interference test (NPA in plant culture medium with MVOCs); assay type: in vivo, Nicotiana tabacum; conditions: 10 μM NPA, 20 days
Procedure: In vitro containment conditions for fungal cultures were modified to utilize culture tube closure or cap (3×4 cm, diameter×length, closure for 25 mm culture tubes, Sigma C5791) in order to mitigate problems related to condensation build-up inside the filter-sealed microcentrifuge tubes that could suffocate growing fungus and reduce MVOC emission, as subsequently noticed. For each sterile closure cap, 5 ml semi-solid MS medium was added and 10 μl of conidial suspension at a density of 1×10^5 CFU per ml was subsequently introduced. The fungal culture in the closure was then placed in a Magenta™ GA7 vessel that contains tobacco seedlings. For controls, a blank culture cap was added. All experiments were repeated three times. Each involved three treated and untreated vessels, respectively, and three replicate plants for each vessel. Cultures were placed under light conditions with a 16-h photoperiod at 25° C. Plants were treated with 10 or 20 d of fungal exposure duration. Regardless of exposure duration used, plant growth was monitored and compared with controls without fungal cultures at the end of 20 d after introduction of fungal cultures. For polar auxin transport interference tests, 10 μM auxin transport inhibitor N-1-naphthylphthalamic acid (NPA) is incorporated in plant culture medium and used to assess plant response in the presence of MVOCs. […]

With `O=C(O)CCCc1c[nH]c2ccccc12` [IBA, indole-3-butyric acid] the root formation efficiency ([1]; 0.5 mg/L IBA) was “very low root formation efficiency”, the root formation frequency ([1]; 1.0 mg/L IBA) was “up to 70%” and the root induction efficiency ([1]; 1.5 mg/L IBA) was “great reduction in root induction efficiency”. For the same molecule, the root induction efficiency ([1]; 2.0 mg/L IBA) was “less than 20%”.

In the case of `O=C(O)c1ccccc1C(=O)Nc1cccc2ccccc12` [NPA, N-1-naphthylphthalamic acid], the “effect on stimulatory effects of Fusarium oxysporum MVOCs on plant biomass increase” value [2] is given as “completely negating”, the “effect on root length, number of leaves and largest leaf length of C. sp treated plants” value (tobacco seedlings) is given as “remained similar” and the lateral root formation (tobacco seedlings) is given as “arrested lateral root formation”.
